Key:
Drosophila TyrR [1] = target: T1, Drosophila TyrR (Drosophila melanogaster, UniProt P22270, C261Y); test: Competitive tyramine receptor binding assay with 3H-tyramine
T1 construct: The open reading frame contained in this PCR product encodes a protein of 601 amino acids; expressed in transfected cells
T1 sequence (P22270 27-601 C261Y): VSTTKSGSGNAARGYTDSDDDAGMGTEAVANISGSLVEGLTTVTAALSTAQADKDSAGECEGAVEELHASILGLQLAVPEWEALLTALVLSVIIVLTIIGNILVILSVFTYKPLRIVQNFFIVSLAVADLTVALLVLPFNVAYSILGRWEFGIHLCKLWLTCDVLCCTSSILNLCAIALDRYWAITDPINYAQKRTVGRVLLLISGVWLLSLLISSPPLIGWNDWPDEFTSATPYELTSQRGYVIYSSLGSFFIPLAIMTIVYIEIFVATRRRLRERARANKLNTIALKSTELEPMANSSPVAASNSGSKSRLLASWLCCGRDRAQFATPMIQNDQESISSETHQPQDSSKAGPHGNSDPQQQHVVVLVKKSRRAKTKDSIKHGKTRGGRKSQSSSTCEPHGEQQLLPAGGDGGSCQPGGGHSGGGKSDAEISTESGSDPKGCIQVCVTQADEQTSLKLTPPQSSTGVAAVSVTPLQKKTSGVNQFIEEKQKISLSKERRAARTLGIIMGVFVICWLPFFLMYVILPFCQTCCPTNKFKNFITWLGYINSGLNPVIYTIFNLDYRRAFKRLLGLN

[2] = target: T2, Drosophila tyramine receptor (droTyrR) (Drosophila melanogaster, UniProt P22270, C261Y); test: Intracellular calcium ([Ca2+]i) in S2 cells stably transfected with Drosophila tyramine receptor (Fura-2 AM); format: cell-based; conditions: 1 μM; Dro-TyrR-expressing S2 cells; no increase in pAC control cells (FIG. 25)
T2 construct: The open reading frame contained in this PCR product encodes a protein of 601 amino acids; expressed in transfected cells
T2 sequence (P22270 27-601 C261Y): T1 sequence (P22270 27-601 C261Y)
Experimental: The blend (at a final concentration of 0.5 mg/mL) was tested on a Drosophila Scheider 2 (“S2”) cell line that was stably transfected with a DNA encoding a tyramine receptor that was amplified from a Drosophila melanogaster head cDNA phage library (“droTyrR”). The intracellular calcium levels (“[Ca^2+]i”) in the treated S2 cells were then measured as a function of time. As a comparison, the a solution of carrier (canola oil, final concentration=0.12 mg/mL) and a solution of surfactant (sugar ester OWA-1570) in insect saline were tested separately.
In a separate set of experiments, the blend (at a final concentration of 0.5 mg/mL) was tested on a Drosophila Scheider 2 (“S2”) cell line that was stably transfected with droTyrR DNA, and the intracellular calcium levels (“[Ca^2+]i”) in the treated S2 cells were then measured as a function of time. […]
In yet another separate set of experiments, the blend (at a final concentration of 0.5 mg/mL) was tested on a Drosophila Scheider 2 (“S2”) cell line that was stably transfected with droTyrR DNA, and the intracellular calcium levels (“[Ca^2+]i”) in the treated S2 cells were then measured as a function of time. […]
Increased cytoplasmic concentrations of IP3 induce release of Ca2+ from the endoplasmic reticulum. […] Data are normalized by dividing each value by the background fluorescence at the beginning of the assay before adding the test sample. […]

Drosophila TyrR [3] = target: T1, Drosophila TyrR; test: 3H-tyramine saturation binding to membranes of S2 cells expressing TyrR; conditions: 0.1 to 30 nM 3H-tyramine
Experimental: To first isolate membranes, Dro-TyrR-expressing S2 cells grown in Drosophila media are harvested in the same media by scraping from the dishes and then rinsing dishes with PBS. The cells are centrifuged at 1000 g for 3 min, washed once with PBS and centrifuged again as previously described. The cells are suspended in ice cold hypotonic buffer (10 mM Tris-Cl, pH 7.4), incubated on ice for 10 min, and lysed using a glass Bounce homogenizer and tight glass pestle (Kontes Glass Co., Vineland, N.J.) with 10 strokes. Nuclei are pelleted by centrifugation at 600 g for 5 min. The supernatant is decanted and centrifuged at 30,000 g for 30 min to pellet a crude membrane fraction. The pellet is suspended in binding buffer (50 mM Tris-Cl, 5 mM MgCl2, pH 7.4). Protein concentration is determined by the Bradford Assay (Bio-Rad Laboratories, Hercules, Calif.). Membranes are frozen on dry ice then stored at −75° C. in aliquots.
[…] The binding reaction is incubated at 23° C. in the presence and absence of 10 μM unlabeled tyramine. Reactions are terminated after 60 min by addition of 3 ml ice cold binding buffer and filtered over GF/C filters that have been soaked for 30 min in 0.3% polyethylenimine. Filters are rinsed one additional time with 3 ml binding buffer. […]

## NCC(O)c1ccc(O)cc1 (racemic) [Octopamine (OA), DL-octopamine]
Drosophila TyrR [1]; competitive binding with 3H-tyramine
  Ki: 28.7 µM

## NCCc1ccc(O)cc1 [Tyramine (TA), Tyramine]
[2]
  Ca2+-bound Fura-2 AM fluorescence: sharp increase
Drosophila TyrR [1]; ratio of Ki values
  affinity for TyrR relative to DL-octopamine: about 22.58 fold

## NCCc1ccc(O)cc1 [^3H-tyramine]
Drosophila TyrR [3]; 10 μM unlabeled tyramine for nonspecific binding, read-out: Kd for specific binding
  Kd: 0.00256 µM
Drosophila TyrR [3]; membranes of TyrR-expressing S2 cells
  Bmax for specific binding: 0.679 pmol receptor/mg membrane protein
